BigSolDB 2.1

O=C(O)c1ccc(C(=O)O)cc1
solubility (mole fraction)
Details | in 2-ethylhexanol | in DMAc | in DMF | in DMSO | in NMP | in pyridine
313.15 K | 0.000293 | 0.0155 | 0.0325 | 0.0964 | 0.0558 | 0.0767
318.15 K | 0.000335 | 0.0199 | 0.0337 | 0.0989 | 0.0646 | 0.0767
323.15 K | 0.000377 | 0.0243 | 0.035 | 0.102 | 0.0736 | 0.0766
328.15 K | 0.000429 | 0.0304 | 0.0361 | 0.104 | 0.0838 | 0.0768
333.15 K | 0.000482 | 0.0365 | 0.0372 | 0.107 | 0.094 | 0.0769
338.15 K | 0.000559 | 0.0453 | 0.0383 | 0.108 | 0.0952 | 0.077
343.15 K | 0.000636 | 0.0541 | 0.0394 | 0.11 | 0.0963 | 0.077
348.15 K | 0.000724 | 0.065 | 0.0412 | 0.113 | 0.0974 | 0.0774
353.15 K | 0.000812 | 0.076 | 0.0429 | 0.116 | 0.0985 | 0.0778
358.15 K | 0.000915 | 0.0823 | 0.0442 | 0.118 | 0.0999 | 0.0783
363.15 K | 0.00102 | 0.0886 | 0.0455 | 0.121 | 0.101 | 0.0787
